Results on two molecules are retold here after paper PMC3979805, “Identification of Resveratrol Oligomers as Inhibitors of Cystic Fibrosis Transmembrane Conductance Regulator by High-Throughput Screening of Natural Products from Chinese Medicinal Plants” (PLoS ONE, 2014).

Assay [1] has as its target T1, cystic fibrosis transmembrane conductance regulator (CFTR) (Homo sapiens, UniProt P13569).
T1 construct: wild-type human CFTR stably expressed in FRT cells
In words: EYFP-H148Q iodide influx assay in FRT cells; excised inside-out patch-clamp ([…], nearly irreversible). In kind it is cell-based. (In patch-clamp work, channel activity is measured electrically.)

Assay [2] concerns the target T1, cystic fibrosis transmembrane conductance regulator (CFTR). In words: EYFP-H148Q iodide influx assay in FRT cells; excised inside-out patch-clamp ([…], reversible). In kind it is cell-based.

T1 sequence (P13569 whole entry): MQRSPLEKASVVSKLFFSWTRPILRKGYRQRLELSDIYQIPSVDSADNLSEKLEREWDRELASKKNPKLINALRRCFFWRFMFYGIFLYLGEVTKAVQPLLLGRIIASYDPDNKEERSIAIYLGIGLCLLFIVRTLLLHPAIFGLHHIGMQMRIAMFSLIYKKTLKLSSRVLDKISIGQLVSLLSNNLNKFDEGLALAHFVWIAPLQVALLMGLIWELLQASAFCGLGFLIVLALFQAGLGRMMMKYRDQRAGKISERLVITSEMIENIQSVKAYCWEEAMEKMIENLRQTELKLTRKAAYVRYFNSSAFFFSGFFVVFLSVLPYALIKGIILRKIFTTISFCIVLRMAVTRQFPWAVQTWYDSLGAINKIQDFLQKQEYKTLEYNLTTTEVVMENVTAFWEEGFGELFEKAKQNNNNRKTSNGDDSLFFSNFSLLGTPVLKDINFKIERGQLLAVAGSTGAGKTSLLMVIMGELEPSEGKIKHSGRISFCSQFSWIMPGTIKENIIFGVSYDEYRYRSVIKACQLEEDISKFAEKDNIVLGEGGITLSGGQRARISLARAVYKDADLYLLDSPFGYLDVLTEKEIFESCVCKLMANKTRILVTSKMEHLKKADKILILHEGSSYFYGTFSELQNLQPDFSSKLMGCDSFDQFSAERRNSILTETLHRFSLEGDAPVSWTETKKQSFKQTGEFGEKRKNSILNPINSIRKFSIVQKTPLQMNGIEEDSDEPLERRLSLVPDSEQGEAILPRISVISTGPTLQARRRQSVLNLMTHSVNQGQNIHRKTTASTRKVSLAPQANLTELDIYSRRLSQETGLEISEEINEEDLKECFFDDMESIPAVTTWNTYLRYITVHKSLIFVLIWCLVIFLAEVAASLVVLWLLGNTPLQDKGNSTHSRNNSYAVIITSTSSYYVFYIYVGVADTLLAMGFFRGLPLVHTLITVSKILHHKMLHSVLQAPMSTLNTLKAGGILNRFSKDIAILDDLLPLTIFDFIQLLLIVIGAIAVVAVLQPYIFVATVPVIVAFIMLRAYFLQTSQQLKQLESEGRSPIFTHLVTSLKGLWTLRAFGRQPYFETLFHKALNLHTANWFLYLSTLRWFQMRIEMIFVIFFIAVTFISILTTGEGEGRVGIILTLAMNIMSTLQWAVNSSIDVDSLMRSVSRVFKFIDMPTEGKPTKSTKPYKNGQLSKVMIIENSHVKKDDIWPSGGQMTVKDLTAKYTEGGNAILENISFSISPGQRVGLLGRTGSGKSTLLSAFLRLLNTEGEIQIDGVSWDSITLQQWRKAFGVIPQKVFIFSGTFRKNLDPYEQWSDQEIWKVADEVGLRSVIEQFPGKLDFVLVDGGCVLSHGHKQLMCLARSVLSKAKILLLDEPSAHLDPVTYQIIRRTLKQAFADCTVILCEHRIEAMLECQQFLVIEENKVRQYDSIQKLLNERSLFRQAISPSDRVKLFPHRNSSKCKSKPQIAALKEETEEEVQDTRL

As usually defined, the IC50 is the concentration that gives 50% inhibition. Low readings indicate greater potency, high ones weaker potency. In assay [1], `Oc1ccc([C@H]2c3c(O)cc(O)cc3[C@H]3c4c(cc(O)cc4[C@H]2c2cc(/C=C/c4cc(O)cc5c4[C@H](c4cc(O)cc(O)c4)[C@@H](c4ccc(O)cc4)O5)ccc2O)O[C@@H]3c2ccc(O)cc2)cc1` [RV, r-2-viniferin] displayed an IC50 of roughly 20 µM. With `Oc1ccc(/C=C/c2cc(O)cc3c2[C@H](c2cc(O)cc(O)c2)[C@@H](c2ccc(O)cc2)O3)cc1` [TV, trans-ε-viniferin], in assay [2], the IC50 is roughly 20 µM.
